Where two headings read alike, the source gives them in different places. Each block holds one compound with its values, some of them ahead of it.
Experiments:
Format in all cases: biochemical
[1] = target: T1, PDE1B (Homo sapiens, UniProt Q01064); test: Phosphodiesterase enzyme screening assay, PDE1B
T1 construct: purchased Reaction Biology Corporation, Malvern, Pa
In short: (§1)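 Reaction started by adding substrate (4.0 μM cGMP) to recombinant human enzyme in HEPES pH 7.5 buffer with MgCl2, DTT and Brij; 1 h at room temperature; quenched with EDTA-containing stop buffer; product and substrate resolved electrophoretically and quantified by fluorescence relative to uninhibited controls.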

[2] = target: T2, PDE1A (Homo sapiens, UniProt P54750); test: Phosphodiesterase enzyme screening assay, PDE1A
T2 construct: purchased Reaction Biology Corporation, Malvern, Pa
T2 sequence (P54750 whole entry): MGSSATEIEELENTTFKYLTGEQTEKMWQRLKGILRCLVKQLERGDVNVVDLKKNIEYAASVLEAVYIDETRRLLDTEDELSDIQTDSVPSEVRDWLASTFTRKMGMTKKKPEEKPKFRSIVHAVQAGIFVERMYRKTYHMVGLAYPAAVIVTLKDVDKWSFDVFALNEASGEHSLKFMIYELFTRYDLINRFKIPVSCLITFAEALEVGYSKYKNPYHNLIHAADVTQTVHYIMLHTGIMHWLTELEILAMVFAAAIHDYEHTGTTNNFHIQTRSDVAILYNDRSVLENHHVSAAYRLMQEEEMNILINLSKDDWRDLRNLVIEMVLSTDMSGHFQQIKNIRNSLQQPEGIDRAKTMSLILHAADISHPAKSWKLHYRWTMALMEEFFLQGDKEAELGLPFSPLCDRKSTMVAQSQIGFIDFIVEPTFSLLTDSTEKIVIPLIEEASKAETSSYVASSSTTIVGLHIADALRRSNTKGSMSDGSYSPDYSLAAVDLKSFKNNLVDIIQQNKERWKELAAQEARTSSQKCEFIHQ
In short: as §1

[3] = target: T3, PDE9A2 (Homo sapiens, UniProt O76083); test: Phosphodiesterase enzyme screening assay, PDE9A2
T3 construct: purchased Reaction Biology Corporation, Malvern, Pa
T3 sequence (O76083 1-533 isoform O76083-2): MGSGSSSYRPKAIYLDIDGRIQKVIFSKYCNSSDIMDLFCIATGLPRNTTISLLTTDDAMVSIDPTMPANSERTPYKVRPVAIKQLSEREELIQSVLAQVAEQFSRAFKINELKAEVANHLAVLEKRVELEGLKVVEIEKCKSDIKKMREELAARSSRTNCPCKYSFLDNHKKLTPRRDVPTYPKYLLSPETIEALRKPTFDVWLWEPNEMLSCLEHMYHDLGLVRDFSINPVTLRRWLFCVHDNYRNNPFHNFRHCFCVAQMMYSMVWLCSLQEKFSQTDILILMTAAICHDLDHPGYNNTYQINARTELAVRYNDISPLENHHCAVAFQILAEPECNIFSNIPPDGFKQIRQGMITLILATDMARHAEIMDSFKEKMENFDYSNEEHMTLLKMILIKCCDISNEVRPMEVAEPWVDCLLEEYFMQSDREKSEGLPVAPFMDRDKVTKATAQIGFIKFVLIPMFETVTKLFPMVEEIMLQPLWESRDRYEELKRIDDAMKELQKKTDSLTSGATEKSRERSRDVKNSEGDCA
In short: as §1

[4] = ratio of IC50 values PDE1B / PDE9A2, value greater than 1 = greater selectivity for PDE9A2
[5] = ratio of IC50 values PDE1A / PDE9A2, value greater than 1 = greater selectivity for PDE9A2
[6] = 4.0 μM cGMP substrate, 1 hour at R.T., read-out: Band (PDE9A2 IC50)
[7] = Table 1, ratio of IC50 values, value greater than 1 indicates greater selectivity for PDE9A2
[8] = Table 1, 10 concentrations, 4.0 μM cGMP substrate, 1 hour at R.T., read-out: Band (PDE9A2 IC50)
[9] = ratio of IC50 values, PDE1B versus PDE9A2, value greater than 1 indicates greater selectivity for PDE9A2
[10] = ratio of IC50 values, PDE1A versus PDE9A2, value greater than 1 indicates greater selectivity for PDE9A2

T1 sequence (Q01064 whole entry): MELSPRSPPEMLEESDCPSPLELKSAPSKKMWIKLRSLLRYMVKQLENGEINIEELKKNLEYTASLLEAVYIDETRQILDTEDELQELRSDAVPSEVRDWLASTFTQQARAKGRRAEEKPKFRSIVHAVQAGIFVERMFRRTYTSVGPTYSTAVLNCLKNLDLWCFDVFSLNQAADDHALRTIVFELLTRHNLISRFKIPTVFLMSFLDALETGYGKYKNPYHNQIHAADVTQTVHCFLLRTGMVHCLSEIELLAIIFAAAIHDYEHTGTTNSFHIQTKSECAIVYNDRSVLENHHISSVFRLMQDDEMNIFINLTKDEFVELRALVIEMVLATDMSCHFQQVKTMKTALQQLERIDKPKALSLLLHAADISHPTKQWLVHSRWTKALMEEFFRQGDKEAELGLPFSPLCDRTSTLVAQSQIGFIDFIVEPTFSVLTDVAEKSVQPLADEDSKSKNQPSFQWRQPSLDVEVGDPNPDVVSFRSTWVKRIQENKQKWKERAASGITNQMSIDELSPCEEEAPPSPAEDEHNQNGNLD

PDE1B selectivity (versus PDE9A2) [1, 4]: 105
PDE1A selectivity (versus PDE9A2) [2, 5]: 236
IC50 [3, 6]: < 1000 nM
Structure (SMILES): CC1CN(Cc2cc(Cl)cc(C(F)(F)F)c2)CC1c1nn2c(C3CCOCC3)ncc2c(=O)[nH]1 (single isomer, unassigned; (+)) [(+)-2-((3,4-trans)-1-(3-chloro-5-(trifluoromethyl)benzyl)-4-methylpyrrolidin-3-yl)-7-(tetrahydro-2H-pyran-4-yl)imidazo[5,1-f][1,2,4]triazin-4(3H)-one]

PDE1B selectivity (versus PDE9A2) [1, 7]: 331
PDE1A selectivity (versus PDE9A2) [2, 7]: 470
IC50 [3, 8]: < 1000 nM
Structure (SMILES): CC1CN(Cc2cccc(Cl)c2)CC1c1nn2c(C3CCOCC3)ncc2c(=O)[nH]1 (single isomer, unassigned; (+)) [(+)-2-((3,4-trans)-1-(3-chlorobenzyl)-4-methylpyrrolidin-3-yl)-7-(tetrahydro-2H-pyran-4-yl)imidazo[5,1-f][1,2,4]triazin-4(3H)-one]

PDE1B selectivity (versus PDE9A2) [1, 7]: 903
PDE1A selectivity (versus PDE9A2) [2, 7]: 703
IC50 [3, 8]: < 1000 nM
Structure (SMILES): CC1CN(Cc2cccc(C3CC3)c2)CC1c1nn2c(C3CCOCC3)ncc2c(=O)[nH]1 (single isomer, unassigned; (+)) [(+)-2-((3,4-trans)-1-(3-cyclopropylbenzyl)-4-methylpyrrolidin-3-yl)-7-(tetrahydro-2H-pyran-4-yl)imidazo[5,1-f][1,2,4]triazin-4(3H)-one]

PDE1B selectivity (versus PDE9A2) [1, 7]: 477
PDE1A selectivity (versus PDE9A2) [2, 7]: 1347
IC50 [3, 8]: < 1000 nM
Structure (SMILES): COc1cccc(CN2CC(C)C(c3nn4c(C5CCOCC5)ncc4c(=O)[nH]3)C2)c1 (single isomer, unassigned; (+)) [(+)-2-((3,4-trans)-1-(3-methoxybenzyl)-4-methylpyrrolidin-3-yl)-7-(tetrahydro-2H-pyran-4-yl)imidazo[5,1-f][1,2,4]triazin-4(3H)-one]

PDE1B selectivity (versus PDE9A2) [1, 7]: 1105
PDE1A selectivity (versus PDE9A2) [2, 7]: 476
IC50 [3, 8]: < 1000 nM
Structure (SMILES): CC1CN(Cc2ccc(Br)cc2)CC1c1nn2c(C3CCOCC3)ncc2c(=O)[nH]1 (single isomer, unassigned; (+)) [(+)-2-((3,4-trans)-1-(4-bromobenzyl)-4-methylpyrrolidin-3-yl)-7-(tetrahydro-2H-pyran-4-yl)imidazo[5,1-f][1,2,4]triazin-4(3H)-one]

PDE1B selectivity (versus PDE9A2) [1, 4]: 406
PDE1A selectivity (versus PDE9A2) [2, 5]: 196
IC50 [3, 6]: < 1000 nM
Structure (SMILES): CC1CN(Cc2ccc(Cl)c(C(F)(F)F)c2)CC1c1nn2c(C3CCOCC3)ncc2c(=O)[nH]1 (single isomer, unassigned; (+)) [(+)-2-((3,4-trans)-1-(4-chloro-3-(trifluoromethyl)benzyl)-4-methylpyrrolidin-3-yl)-7-(tetrahydro-2H-pyran-4-yl)imidazo[5,1-f][1,2,4]triazin-4(3H)-one]

PDE1B selectivity (versus PDE9A2) [1, 7]: 6575
PDE1A selectivity (versus PDE9A2) [2, 7]: 3575
IC50 [3, 8]: < 1000 nM
Structure (SMILES): CC1CN(Cc2ccc(Cl)c(F)c2)CC1c1nn2c(C3CCOCC3)ncc2c(=O)[nH]1 (single isomer, unassigned; (+)) [(+)-2-((3,4-trans)-1-(4-chloro-3-fluorobenzyl)-4-methylpyrrolidin-3-yl)-7-(tetrahydro-2H-pyran-4-yl)imidazo[5,1-f][1,2,4]triazin-4(3H)-one]

PDE1B selectivity (versus PDE9A2) [1, 4]: 818
PDE1A selectivity (versus PDE9A2) [2, 5]: 466
IC50 [3, 6]: < 1000 nM
Structure (SMILES): Cc1cc(CN2CC(C)C(c3nn4c(C5CCOCC5)ncc4c(=O)[nH]3)C2)ccc1Cl (single isomer, unassigned; (+)) [(+)-2-((3,4-trans)-1-(4-chloro-3-methylbenzyl)-4-methylpyrrolidin-3-yl)-7-(tetrahydro-2H-pyran-4-yl)imidazo[5,1-f][1,2,4]triazin-4(3H)-one]

PDE1B selectivity (versus PDE9A2) [1, 7]: 1210
PDE1A selectivity (versus PDE9A2) [2, 7]: 595
IC50 [3, 8]: < 1000 nM
Structure (SMILES): CC1CN(Cc2ccc(Cl)cc2)CC1c1nn2c(C3CCC(F)(F)CC3)ncc2c(=O)[nH]1 (single isomer, unassigned; (+)) [(+)-2-((3,4-trans)-1-(4-chlorobenzyl)-4-methylpyrrolidin-3-yl)-7-(4,4-difluorocyclohexyl)imidazo[5,1-f][1,2,4]triazin-4(3H)-one]

PDE1B selectivity (versus PDE9A2) ([1]; ratio of IC50 values PDE1B vs PDE9A2, value greater than 1 indicates greater selectivity for PDE9A2): 1106
PDE1A selectivity (versus PDE9A2) ([2]; ratio of IC50 values PDE1A vs PDE9A2, value greater than 1 indicates greater selectivity for PDE9A2): 468
IC50 ([3]; IC50 band, 4.0 μM cGMP substrate, 1 hour at R.T.): < 1000 nM
Structure (SMILES): Cc1cc(F)ccc1-c1ncc2c(=O)[nH]c(C3CN(Cc4ccc(Cl)cc4)CC3C)nn12 (single isomer, unassigned; (+)) [(+)-2-((3,4-trans)-1-(4-chlorobenzyl)-4-methylpyrrolidin-3-yl)-7-(4-fluoro-2-methylphenyl)imidazo[5,1-f][1,2,4]triazin-4(3H)-one]

PDE1B selectivity (versus PDE9A2) [1, 9]: 109
PDE1A selectivity (versus PDE9A2) [2, 10]: 55
IC50 ([3]; read-out: Band (PDE9A2 IC50)): < 1000 nM
Structure (SMILES): Cc1ccccc1-c1ncc2c(=O)[nH]c(C3CN(Cc4ccc(Cl)cc4)CC3C)nn12 (single isomer, unassigned; (+)) [(+)-2-((3,4-trans)-1-(4-chlorobenzyl)-4-methylpyrrolidin-3-yl)-7-(o-tolyl)imidazo[5,1-f][1,2,4]triazin-4(3H)-one]

PDE1B selectivity (versus PDE9A2) [1, 7]: 605
PDE1A selectivity (versus PDE9A2) [2, 7]: 260
IC50 [3, 8]: < 1000 nM
Structure (SMILES): CC1CN(Cc2ccc(C3CC3)cc2)CC1c1nn2c(C3CCOCC3)ncc2c(=O)[nH]1 (single isomer, unassigned; (+)) [(+)-2-((3,4-trans)-1-(4-cyclopropylbenzyl)-4-methylpyrrolidin-3-yl)-7-(tetrahydro-2H-pyran-4-yl)imidazo[5,1-f][1,2,4]triazin-4(3H)-one]

PDE1B selectivity (versus PDE9A2) [1, 7]: 1097
PDE1A selectivity (versus PDE9A2) [2, 7]: 1687
IC50 [3, 8]: < 1000 nM
Structure (SMILES): CC1CN(Cc2ccc(F)c(C(F)(F)F)c2)CC1c1nn2c(C3CCOCC3)ncc2c(=O)[nH]1 (single isomer, unassigned; (+)) [(+)-2-((3,4-trans)-1-(4-fluoro-3-(trifluoromethyl)benzyl)-4-methylpyrrolidin-3-yl)-7-(tetrahydro-2H-pyran-4-yl)imidazo[5,1-f][1,2,4]triazin-4(3H)-one]

PDE1B selectivity (versus PDE9A2) ([1]; ratio of IC50 values PDE1B / PDE9A2, value greater than 1 indicates greater selectivity for PDE9A2): 165
PDE1A selectivity (versus PDE9A2) ([2]; ratio of IC50 values PDE1A / PDE9A2, value greater than 1 indicates greater selectivity for PDE9A2): 62
IC50 [3, 6]: < 1000 nM
Structure (SMILES): CC1CN(Cc2ccc(F)cc2)CC1c1nn2c(-c3ccccc3F)ncc2c(=O)[nH]1 (single isomer, unassigned; (+)) [(+)-2-((3,4-trans)-1-(4-fluorobenzyl)-4-methylpyrrolidin-3-yl)-7-(2-fluorophenyl)imidazo[5,1-f][1,2,4]triazin-4(3H)-one]

PDE1B selectivity (versus PDE9A2) [1, 9]: 57
PDE1A selectivity (versus PDE9A2) [2, 10]: 42
IC50 ([3]; read-out: Band (PDE9A2 IC50)): < 1000 nM
Structure (SMILES): CC1CN(Cc2ccc(F)cc2)CC1c1nn2c(-c3cccc(F)c3)ncc2c(=O)[nH]1 (single isomer, unassigned; (+)) [(+)-2-((3,4-trans)-1-(4-fluorobenzyl)-4-methylpyrrolidin-3-yl)-7-(3-fluorophenyl)imidazo[5,1-f][1,2,4]triazin-4(3H)-one]

PDE1B selectivity (versus PDE9A2) [1, 9]: 744
PDE1A selectivity (versus PDE9A2) [2, 10]: 963
IC50 ([3]; read-out: Band (PDE9A2 IC50)): < 1000 nM
Structure (SMILES): Cc1ccccc1-c1ncc2c(=O)[nH]c(C3CN(Cc4ccc(F)cc4)CC3C)nn12 (single isomer, unassigned; (+)) [(+)-2-((3,4-trans)-1-(4-fluorobenzyl)-4-methylpyrrolidin-3-yl)-7-(o-tolyl)imidazo[5,1-f][1,2,4]triazin-4(3H)-one]

PDE1B selectivity (versus PDE9A2) [1, 9]: 27
PDE1A selectivity (versus PDE9A2) [2, 10]: 70
IC50 ([3]; read-out: Band (PDE9A2 IC50)): < 1000 nM
Structure (SMILES): CCC(CC)c1ncc2c(=O)[nH]c(C3CN(Cc4ccc(F)cc4)CC3C)nn12 (single isomer, unassigned; (+)) [(+)-2-((3,4-trans)-1-(4-fluorobenzyl)-4-methylpyrrolidin-3-yl)-7-(pentan-3-yl)imidazo[5,1-f][1,2,4]triazin-4(3H)-one]

PDE1B selectivity (versus PDE9A2) [1, 7]: 714
PDE1A selectivity (versus PDE9A2) [2, 7]: 664
IC50 [3, 8]: < 1000 nM
Structure (SMILES): CC1CN(Cc2ccc(F)cc2)CC1c1nn2c(C3CCOCC3)ncc2c(=O)[nH]1 (single isomer, unassigned; (+)) [(+)-2-((3,4-trans)-1-(4-fluorobenzyl)-4-methylpyrrolidin-3-yl)-7-(tetrahydro-2H-pyran-4-yl)imidazo[5,1-f][1,2,4]triazin-4(3H)-one]

PDE1B selectivity (versus PDE9A2) [1, 9]: 7
PDE1A selectivity (versus PDE9A2) [2, 10]: 3
IC50 ([3]; read-out: Band (PDE9A2 IC50)): < 1000 nM
Structure (SMILES): CC1CN(Cc2ccc(F)cc2)CC1c1nn2c(-c3ccccc3)ncc2c(=O)[nH]1 (single isomer, unassigned; (+)) [(+)-2-((3,4-trans)-1-(4-fluorobenzyl)-4-methylpyrrolidin-3-yl)-7-phenylimidazo[5,1-f][1,2,4]triazin-4(3H)-one]

PDE1B selectivity (versus PDE9A2) [1, 4]: 16
PDE1A selectivity (versus PDE9A2) [2, 5]: 15
IC50 [3, 6]: < 1000 nM
Structure (SMILES): CC1CN(Cc2cc(Cl)ccc2F)CC1c1nn2c(C3CCOCC3)ncc2c(=O)[nH]1 (single isomer, unassigned; (+)) [(+)-2-((3,4-trans)-1-(5-chloro-2-fluorobenzyl)-4-methylpyrrolidin-3-yl)-7-(tetrahydro-2H-pyran-4-yl)imidazo[5,1-f][1,2,4]triazin-4(3H)-one]

Source: US9969742B2, “Imidazotriazinone compounds” (Ironwood Pharmaceuticals, Inc., priority 2012, dated 2018)
